# Assay results taken from patent publication US6589963B2, “Heterocyclic compounds and salts thereof and medicinal use of the same” (Kyoto Pharmaceutical Industries, Ltd., priority 1999, dated 2003).
# How the values were obtained:
# [1] = test system: male KK-A^y mice; assay: Hypoglycemic action (method A); format: in vivo, mouse; settings: 4 consecutive days, non-fasting, about 24 hours after final administration, vs control group
# Method: (§1) The glucose level in the plasma was measured using a commercially available assay kit (glucose CII-test WAKO, Wako Pure Chemical Industries, Ltd.). The mice were grouped (5 mice per group) into a control group and an administration group, such that the mean and the standard deviation of the glucose level in the plasma of each group were nearly the same. Each test compound was suspended or dissolved in 5% gum arabic solution and administered orally to the administration group for 4 consecutive days from the next day. The 5% gum arabic solution was orally administered to the control group. Blood was drawn from the tail vein under a non-fasting state about 24 hours after the final administration and the glucose level in the plasma was measured. The decrease in the plasma glucose level was calculated from the following formula.
# Decrease (%) in plasma glucose level=[(mean plasma glucose level of control group−mean plasma glucose level of test compound administration group)/mean plasma glucose level of control group]×100
# [2] = test system: male KK-A^y mice; assay: Hypotriglyceridemic action; format: in vivo, mouse; settings: dose 30 mg/kg orally, 4 consecutive days, non-fasting, about 24 hours after final administration, vs control group
# Method: as §1, with “triglyceride” for “glucose”, “(triglyceride G-test” for “(glucose CII-test”
# Decrease (%) in plasma triglyceride level=[(mean plasma triglyceride level of control group−mean plasma triglyceride level of test compound administration group)/mean plasma triglyceride level of control group]×100
# [3] = test system: 3T3-L1 cells; assay: Triglyceride accumulation promoting action in 3T3-L1 cells; format: cell-based; settings: 10^−7 M test compound with 10 ng/ml insulin, 4 days; relative to control
# Method: A culture medium of 80% confluent 3T3-L1 cells was removed and the cells were dissociated with 0.25% trypsin-EDTA solution. 5% FBS-DMEM (the same amount as the removed medium) was added and the obtained cell suspension was centrifuged at 25° C., 100×g for 1 min to give cell sediment and the supernatant was removed. The cells were re-suspended in a suitable amount of 5% FBS-DMEM medium and the cells were counted. 5% FBS-DMEM medium was added to adjust the concentration to 1×10^5 cells/ml and the mixture was dispensed by 1 ml to a 24 well plate. The cells were cultured with aeration of 5% CO2 at 37° C. for 2 days. Upon confirmation of a post-confluent state, the culture supernatant was changed to a medium containing 0.5 mM-IBMX, and the cells were cultured for 2 days. Then, the medium was changed to a medium containing 10 ng/ml insulin and 10^−7 M test compound and the cells were cultured further for 4 days. After removing the culture supernatant, the cells were lysed in a 0.1% SDS solution and the triglyceride amount was measured. The triglyceride accumulation (%) due to the potentiation of insulin activity by the test compound was calculated from the following formula.
# [(triglyceride amount with addition of test compound−triglyceride amount of control)/triglyceride amount of control]×100
SMILES,Decrease (%) in plasma glucose level ([1]; dose 10 mg/kg orally) [%],Decrease (%) in plasma glucose level ([1]; dose 30 mg/kg orally) [%],Decrease (%) in plasma triglyceride level [2] [%],Triglyceride accumulation (%) [3] [%]
"CCCCCC(=O)N1Cc2cc(OCCc3nc(-c4ccccc4)oc3C)ccc2C[C@H]1C(=O)O [Example 5, 2-Hexanoyl-7-[2-(5-methyl-2-phenyloxazol-4-yl)ethoxy]-1,2,3,4-tetrahydroisoquinoline-(3S)-carboxylic acid]",34.1,43.4,30.9,233.0
"Cc1oc(-c2ccccc2)nc1CCOc1ccc2c(c1)CN(CC1CCCCC1)[C@H](C(=O)O)C2 [Example 8, 2-Cyclohexylmethyl-7-[2-(5-methyl-2-phenyloxazol-4-yl)ethoxy]-1,2,3,4-tetrahydroisoquinoline-(3S)-carboxylic acid]",,,,275.5
"COc1ccc(CN2Cc3cc(OCCc4nc(-c5ccccc5)oc4C)ccc3C[C@H]2C(=O)O)cc1 [Example 16, 2-(4-Methoxybenzyl)-7-[2-(5-methyl-2-phenyloxazol-4-yl)ethoxy]-1,2,3,4-tetrahydroisoquinoline-(3S)-carboxylic acid]",,34.5,19.8,288.9
C=CCCc1nc(CCOc2ccc3c(c2)CN(Cc2ccccc2)[C@H](C(=O)O)C3)c(C)o1 [Example 37],,11.1,,277.3
"CC(C)(CCOc1ccc2c(c1)CN(Cc1ccccc1)[C@H](C(=O)O)C2)c1ccccc1 [Example 49, 2-Benzyl-7-(3-methyl-3-phenylbutoxy)-1,2,3,4-tetrahydroisoquinoline-(3S)-carboxylic acid]",,11.1,17.0,
"CC(C)(CCOc1ccc2c(c1)CN(Cc1ccccc1)[C@H](C(=O)O)C2)Cc1ccccc1 [Example 50, 2-Benzyl-7-(3,3-dimethyl-4-phenylbutoxy)-1,2,3,4-tetrahydroisoquinoline-(3S)-carboxylic acid]",,11.4,35.7,
"CC(C)c1nc2ccc(COc3ccc4c(c3)CN(Cc3ccccc3)[C@H](C(=O)O)C4)cc2o1 [Example 51, 2-Benzyl-7-(2-isopropylbenzoxazol-6-yl)methoxy-1,2,3,4-tetrahydroisoquinoline-(3S)-carboxylic acid]",,20.0,10.7,
"CC(C)(C)c1nc2ccc(COc3ccc4c(c3)CN(Cc3ccccc3)[C@H](C(=O)O)C4)cc2o1 [Example 52, 2-Benzyl-7-(2-tert-butylbenzoxazol-6-yl)methoxy-1,2,3,4-tetrahydroisoquinoline-(3S)-carboxylic acid]",,26.3,26.6,
"COC(=O)[C@@H]1Cc2ccc(OCCc3nc(-c4ccccc4)oc3C)cc2CN1Cc1ccccc1 [Example 58, Methyl 2-benzyl-7-[2-(5-methyl-2-phenyloxazol-4-yl)ethoxy]-1,2,3,4-tetrahydroisoquinoline-(3S)-carboxylate]",,19.1,24.7,
"CCC=Cc1nc(CCOc2ccc3c(c2)CN(Cc2ccccc2)[C@H](C(=O)O)C3)c(C)o1 [Example 62, 2-Benzyl-7-{2-[2-(1-butenyl)-5-methyloxazol-4-yl]ethoxy}-1,2,3,4-tetrahydroisoguinoline-(3S)-carboxylic acid]",,,,327.8
"Cc1oc(-c2ccccc2)nc1CCOc1ccc2c(c1)CN(CC(=O)O)[C@H](C(=O)O)C2 [Example 69, 2-Carboxymethyl-7-[2-(5-methyl-2-phenyloxazol-4-yl)ethoxy]-1,2,3,4-tetrahydroisoquinoline-(3S)-carboxylic acid]",,12.5,15.2,
"CC(=O)c1cccc(CN2Cc3cc(OCCc4nc(-c5ccccc5)oc4C)ccc3C[C@H]2C(=O)O)c1 [Example 73, 2-(3-Acetylbenzyl)-7-[2-(5-methyl-2-phenyloxazol-4-yl)ethoxy]-1,2,3,4-tetrahydroisoquinoline-(3S)-carboxylic acid]",,14.8,15.4,
